How the values were obtained:
[1] = test system: TNF-α production; test: Measurement of TNF-α production-inhibiting action (LPS-stimulated THP-1 cells, ELISA); assay type: cell-based; conditions: Homo sapiens; test substance 100 nM; THP-1 cells with LPS, 2 hours' culture; TNF-α in supernatant by ELISA; read-out: TNF-α generation-inhibiting action (inhibition: rate: %, 100 nM)
Description: (1) Measurement of TNF-α Production-Inhibiting Action
THP-1, human-derived culture cells (purchased from Dainippon Pharmaceutical Co.), was suspended (1×10^5 cells/mL) in RPMI 1640 medium (10% fetal bovine serum, containing 100 units/mL of penicillin). The THP-1 cell suspension 1.6 mL was inoculated in a 24-well culture plate, to which further a solution of test substance as dissolved in RPMI 1640 medium to make the final concentration of the test substance 100 nM and 0.2 mL of LPS (E. coli 055: B5-derived, dissolved in RPMI 1640 medium, Difco) of 10 μg/mL in concentration were added, followed by 2 hours' culture under the conditions of 37° C. and 5% CO2. The supernatant which was obtained upon centrifuge (500×g, 5 minutes) was measured with ELISA (Amersham Biosciences, TNF-α Human, ELISA Biotrak System) to quantize TNF-α. The TNF-α production inhibition rate (%) at 100 nM of each test substance was calculated according to the following formula, […]

[2] = Measurement of the compounds' metabolic rate (human liver S9, LC/MS/MS); assay type: in vitro ADME; conditions: human liver S9 0.5 mg protein/mL, compound 1 μmol/L, NADPH generating system, pH7.4, 37° C.
Description: (2) Measurement of the Compounds' Metabolic Rate:
Each test compound was added to potassium phosphate buffer (50 mmol/L, pH7.4) containing NADPH generating system (comprising 3.3 mmol/L MgCl2, 3.3 mmol/L glucose 6-phosphate, 1.3 mmol/L β-NADP^+ and 0.4 unit/mL glucose 6-phosphate dehydrogenase) (in which occasion the final concentration was rendered 1 μmol/L) and incubated at 37° C. for 2 minutes. After the incubation, a suspension of human liver S9 (the supernatant fraction obtained by centrifuging comminuted human liver cell fluid at 9000×g) in potassium phosphate buffer was added to the system, to the final concentration of 0.5 mg protein/mL. This reaction mixture was incubated at 37° C. for 5 minutes, and to which 4 volume times the reaction mixture of acetonitrile was added, mixed, cooled with ice and centrifuged (2000×g, 10 minutes). A part of the supernatant was taken and analyzed by LC/MS/MS, to determine the remaining rate of unchanged substance in the reaction solution. The results are shown in the following Table A, concurrently with the measured results of TNF-α production-inhibiting action in (1) above.

Structure (SMILES)	inhibition at 0.1 µM [1]	percent of unchanged compound remaining after 5 min [2]
Cc1ccc(F)c(-c2noc(NC(=O)CCc3cccc(Cl)c3)c2-c2ccncc2)c1 [Example 117, 5-[(3-Chlorophenyl)propionylamino]-3-(2-fluoro-5-methylphenyl)-4-(4-pyridyl)isoxazole]	58.1%	50.5%
Cc1cc(-c2noc(NC(=O)Cc3ccccc3)c2-c2ccncc2)ccc1F [Example 123, 3-(4-Fluoro-3-methylphenyl)-5-(phenylacetylamino)-4-(4-pyridyl)-isoxazole]	78.1%	58.0%
Cc1cccc(-c2noc(NC(=O)CCc3ccccc3)c2-c2ccncc2)c1 [Example 103, 3-(3-Methylphenyl)-5-(3-phenylpropionylamino)-4-(4-pyridyl)-isoxazole]	65.5%	17.6%
Cc1cccc(-c2noc(NC(=O)CCc3ccccc3C)c2-c2ccncc2)c1 [Example 106, 3-(3-Methylphenyl)-5-[(2-methylphenyl)propionylamino]-4-(4-pyridyl)isoxazole]	52.9%	23.3%
Cc1cc(-c2noc(NC(=O)Cc3ccccc3Cl)c2-c2ccncc2)ccc1F [Example 124, 5-[(2-Chlorophenyl)acetylamino]-3-(4-fluoro-3-methylphenyl)-4-(4-pyridyl)isoxazole]	85.2%	59.7%
Cc1cc(-c2noc(NC(=O)CCc3ccccc3)c2-c2ccncc2)ccc1F [Example 125, 3-(4-Fluoro-3-methylphenyl)-5-(3-phenylpropionylamino)-4-(4-pyridyl)isoxazole]	66%	20.1%
